{
  "source": "patent US10570152B2",
  "about": "“Antibacterial therapeutics and prophylactics” (VYOME BIOSCIENCES PVT. LTD., priority 2015, dated 2020)",
  "key": {"Gram negative pathogens": {"tested_on": "Gram negative pathogens", "test": "MIC interpretations, Gram negative pathogens", "type": "cell-based", "details": "most of the Gram negative pathogens", "protocol": "MIC of DART molecules were determined by micro broth dilution as per CLSI guidelines. Bacterial strains were cultured in Brain Heart Infusion Agar (BHIA) at 37° C. for 24 h. For MIC determination, BHI broth (100 μl) was added to each of the wells of a 96 well plate. 100 μl of broth containing drug was added to the first well (1A to 1H) and thereafter serial (double) dilutions were carried out for up to 10 wells (column 1 to column 10 of the 96 well plate). Bacterial inoculum was prepared by adjusting the bacterial culture turbidity to 0.5 McFarland standard (approximately 1.5×10^8 cells/ml) and further diluted (100 times with sterile BHI broth). Diluted bacterial suspension (100 μl) was added to each well except sterility control wells (column 12 of 96 well plate). The plates were incubated at 37° C. for 24 h. The MIC of the test compound was measured after addition of Alamar blue dye."}, "S. epidermidis S5-2": {"tested_on": "S. epidermidis S5-2", "test": "Sequential ZIB (zone of inhibition) assay for PMMA beads", "type": "cell-based, Staphylococcus epidermidis", "details": "SmartSet HV impregnated beads", "protocol": "S. epidermidis S5-2 cells were grown in Brain Heart Infusion Agar (BHIA) at 37° C. for 24 h. 100 μl of 0.5 McFarland equal bacterial suspension was spread on BHA plates. Drug loaded beads were placed above these plates. Plates were incubated at 37° C. for 24 h. Next day, zone of inhibition (ZOI) the beads were measured following which the beads were placed on fresh BHA plates with bacterial suspension spread and this experiment was continued up to seven days. The drug release pattern was determined by compiling and analyzing the ZOI data of beads on each ZOI cycle up to seven days."}, "[1]": {"tested_on": "S. aureus and S. epidermidis", "test": "Emergence of resistance assay (serial passaging)", "type": "cell-based, S. aureus MTCC 6908 & S. epidermidis S5-2", "details": "upto 28th generation", "protocol": "The in vitro emergence of resistance assay was performed for the compounds as per methods reported in literatures. The resistance assay for the test compounds was done in the same manner as documented in the MIC assay using micro broth dilution method as per CLSI guidelines. For the second cycle, bacterial culture was collected from the well showing growth, containing the next lowest concentration to the MIC of test compound, and used as inoculum for the next cycle containing the same or higher range of concentrations depending on the MIC in each cycle. The same procedure was repeated in subsequent cycles for 20-30 days. […] The serial passaging was repeated for 20-30 consecutive cycles. The assay was done in duplicates in each cycle.\nAn increase in MIC≥8 fold compared to the MIC of the test compound in cycle 1 was considered as a significant development of resistance."}, "[2]": {"tested_on": "P. acnes CCARM 9010 induced paw inflammation", "test": "Anti-inflammatory action in vivo, rat paw edema model", "set-up": "species or system Sprague Dawley rats", "details": "topical, 24 h post initiation of treatment (32 h post induction)", "excerpt": "Host inflammation is one of the crucial clinical feature of most of the indications associated with bacterial infections. The inventors used an exemplary compound of the invention (Compound 2) to test the anti-inflammatory effects in vivo using rat paw edema model. Inflammation was induced using one of the opportunistic pathogens Propionibacterium acnes prevalent in implant associated infections. Sprague Dawley rats were used for the study and infection was induced by P. acnes CCARM 9010. An inoculum of 1×10^9 CFU/ml of the heat killed bacteria was injected to the plantar side of the right hind paw (˜2×10^7 CFU/paw) except in sham control where saline was injected. Treatments were initiated 8 h post injection by applying the test formulation of Compound 2 (30 mg) twice daily to the plantar surface of the right hind paw and gently rubbing 50 times with the index finger. Comparators Acnedap (dapsone 5% gel) and adapalene gel (Adaferin®) were applied twice daily and once daily based on clinical prescription dosage. Paw sizes were measured in millimeters using Vernier calipers at the start of the infection, 8 h post infection, and 24 h post initiation of treatment (32 h post induction of inflammation). The change in paw size, due to inflammation, was evaluated as the difference between the paw size measured at each time point and the basal paw size measured immediately before edema induction."}, "S. aureus CCARM 3505": {"tested_on": "S. aureus CCARM 3505", "test": "MIC by micro broth dilution", "type": "cell-based", "details": "Staphylococcus aureus, CCARM3505, read-out: Minimum inhibitory concentration (MIC)", "outline": "(§1)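 Twofold serial dilutions in BHI broth per CLSI, inoculated with 0.5 McFarland culture (approx. 1.5×10^8 cells/ml) diluted 100-fold. Plates incubated 24 h at 37° C.; MIC read after Alamar blue addition.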"}, "E. coli MTCC 1687": {"tested_on": "E. coli MTCC 1687", "test": "MIC by micro broth dilution", "type": "cell-based", "details": "Escherichia coli, MTCC1687, read-out: Minimum inhibitory concentration (MIC)", "outline": "as §1"}, "E. aerogenes M2-1": {"tested_on": "E. aerogenes M2-1", "test": "MIC by micro broth dilution", "type": "cell-based", "details": "Klebsiella aerogenes, M21, read-out: Minimum inhibitory concentration (MIC)", "outline": "as §1"}, "E. faecium NCIM 5421": {"tested_on": "E. faecium NCIM 5421", "test": "MIC by micro broth dilution", "type": "cell-based", "details": "Enterococcus faecium, NCIM5421, read-out: Minimum inhibitory concentration (MIC)", "outline": "as §1"}, "P. aeruginosa ATCC 27853": {"tested_on": "P. aeruginosa ATCC 27853", "test": "MIC by micro broth dilution", "type": "cell-based", "details": "Pseudomonas aeruginosa, ATCC27853, read-out: Minimum inhibitory concentration (MIC)", "outline": "as §1"}, "[3]": {"tested_on": "S. epidermidis ATCC 35984", "test": "MIC by micro broth dilution", "type": "cell-based", "details": "Staphylococcus epidermidis, ATCC35984, read-out: Minimum inhibitory concentration (MIC)", "outline": "as §1"}, "E. coli BAA 196": {"tested_on": "E. coli BAA 196", "test": "MIC by micro broth dilution", "type": "cell-based", "details": "Escherichia coli, BAA196, read-out: Minimum inhibitory concentration (MIC)", "outline": "as §1"}, "S. epidermidis S12-1": {"tested_on": "S. epidermidis S12-1", "test": "MIC by micro broth dilution", "type": "cell-based", "details": "Staphylococcus epidermidis, S121, read-out: Minimum inhibitory concentration (MIC)", "outline": "as §1"}, "S. aureus MTCC 6908": {"tested_on": "S. aureus MTCC 6908", "test": "MIC by micro broth dilution", "type": "cell-based", "details": "Staphylococcus aureus, MTCC6908, read-out: Minimum inhibitory concentration (MIC)", "outline": "as §1"}, "S. aureus ATCC 43300": {"tested_on": "S. aureus ATCC 43300", "test": "MIC by micro broth dilution", "type": "cell-based", "details": "Staphylococcus aureus, ATCC43300; S. aureus ATCC 43300; read-out: Minimum inhibitory concentration (MIC)", "outline": "as §1"}, "E. aerogenes NCIM 5139": {"tested_on": "E. aerogenes NCIM 5139", "test": "MIC by micro broth dilution", "type": "cell-based", "details": "Klebsiella aerogenes, NCIM5139, read-out: Minimum inhibitory concentration (MIC)", "outline": "as §1"}, "A. baumannii ATCC 1906": {"tested_on": "A. baumannii ATCC 1906", "test": "MIC by micro broth dilution", "type": "cell-based", "details": "Acinetobacter baumannii, ATCC1906, read-out: Minimum inhibitory concentration (MIC)", "outline": "as §1"}, "K. pneumonia ATCC 13883": {"tested_on": "K. pneumonia ATCC 13883", "test": "MIC by micro broth dilution", "type": "cell-based", "details": "Klebsiella pneumoniae, ATCC13883; K. pneumonia ATCC 13883; read-out: Minimum inhibitory concentration (MIC)", "outline": "as §1"}},
  "note": "Where “and” joins values, the source holds several entries; their conditions need not be identical. Identical values can stand only once.",
  "data": [
    {"smiles": "Cc1ncc([N+](=O)[O-])n1CCN1CCN(c2cc3c(cc2F)c(=O)c(C(=O)O)c2n3C(C)S2)CC1", "note": "(centres unmarked) [Compound 2, 6-Fluoro-1-methyl-7-(4-(2-(2-methyl-5-nitro-1H-imidazol-1-yl)ethyl)piperazin-1-yl)-4-oxo-1H,4H-[1,3]thiazeto[3,2-a]quinoline-3-carboxylic acid]", "values": [
      {"measurement": "activity (MIC) range", "setting": "Gram negative pathogens", "value": "4 to 8", "unit": "µg/mL"},
      {"measurement": "Sequential ZOI", "setting": "S. epidermidis S5-2; Day-1", "value": 2.2, "unit": "cm"},
      {"measurement": "Sequential ZOI", "setting": "S. epidermidis S5-2; Day-2", "value": 2.1, "unit": "cm"},
      {"measurement": "Sequential ZOI", "setting": "S. epidermidis S5-2; Day-3", "value": 1.6, "unit": "cm"},
      {"measurement": "Sequential ZOI", "setting": "S. epidermidis S5-2; Day-4", "value": 0.8, "unit": "cm"},
      {"measurement": "Sequential ZOI", "setting": "S. epidermidis S5-2; Day-5", "value": 1.6, "unit": "cm"},
      {"measurement": "Sequential ZOI", "setting": "S. epidermidis S5-2; Day-6", "value": 1.8, "unit": "cm"},
      {"measurement": "Sequential ZOI", "setting": "S. epidermidis S5-2; Day-7", "value": 1.4, "unit": "cm"},
      {"measurement": "MIC enhancement", "setting": "[1]", "value": "2-4 ×MIC"},
      {"measurement": "Inhibition of inflammation (%) at 24 h post treatment", "setting": "[2]", "value": "43% and 43.20%"},
      {"measurement": "MIC", "setting": "S. aureus CCARM 3505", "value": 16, "unit": "µg/mL"},
      {"measurement": "MIC", "setting": "E. coli MTCC 1687", "value": 1, "unit": "µg/mL"},
      {"measurement": "MIC", "setting": "E. aerogenes M2-1", "value": 8, "unit": "µg/mL"},
      {"measurement": "MIC", "setting": "E. faecium NCIM 5421", "value": 0.25, "unit": "µg/mL"},
      {"measurement": "MIC", "setting": "P. aeruginosa ATCC 27853", "value": 8, "unit": "µg/mL"},
      {"measurement": "MIC", "setting": "[3]", "value": 0.03, "unit": "µg/mL"},
      {"measurement": "MIC", "setting": "E. coli BAA 196", "value": 8, "unit": "µg/mL"},
      {"measurement": "MIC", "setting": "S. epidermidis S12-1", "value": 8, "unit": "µg/mL"},
      {"measurement": "MIC", "setting": "S. aureus MTCC 6908", "value": 0.53, "unit": "µg/mL"},
      {"measurement": "MIC", "setting": "S. aureus ATCC 43300", "value": 0.13, "unit": "µg/mL"},
      {"measurement": "MIC", "setting": "E. aerogenes NCIM 5139", "value": 4, "unit": "µg/mL"},
      {"measurement": "MIC", "setting": "A. baumannii ATCC 1906", "value": 8, "unit": "µg/mL"},
      {"measurement": "MIC", "setting": "K. pneumonia ATCC 13883", "value": 4, "unit": "µg/mL"}
    ]}
  ]
}
